# Literature values in US9629386B2, “Nutrition composition” (AJINOMOTO CO., INC., priority 2008, dated 2017).
# Test system: CRP and nutrition condition
# Conditions: 1.2 g to 11 dialysis patients for 12 weeks
substance,measurement,value
ω-3 fatty acid,CRP,did not decrease CRP
same,nutrition condition,did not improve nutrition condition
